Source: patent US20230346773A1, “USE OF PCSK9 INHIBITOR IN PREPARATION OF PRODUCT FOR TREATING MULTIPLE DISEASES” (priority 2020, published 2023)
Marks after values point to notes of the source that are not given here.

Assays:
[1] = tested on: vitiligo guinea pig model caused by hydroquinone depigmentation; assay: Vitiligo guinea pig model caused by hydroquinone depigmentation: counts of epidermal MC and melanin-granule-containing basal cells; type: in vivo; conditions: guinea pig skin after hydroquinone decolorization, drug once a day for 30 days, n = 10, x ± s; for Epidermal melanocyte count: average number of MCs in each 100 epidermal basal cells; for Basal cells containing melanin granules count: average number per 100 epidermal basal cells
Method: 10 in each group, Half male and female. Except for the blank control group, the other groups were smeared with 5% hydroquinone in the hair removal area for decolorization, 0.5 mL each time, twice a day, and the animals in the blank control group were smeared with an equal amount of normal saline every day. […] After modeling, the drug was administered in the above manner, once a day for 30 days.
After the observation, the mice were sacrificed, and the skin tissue on the back about 3 cm×3 cm was cut for histopathological examination.
The excised mouse skin tissue was fixed in 10% formalin for 1 hour, washed with running water for 3-4 min, and placed into a phosphate buffer solution (pH 7.4) containing 0.1% dihydroxyphenylalanine, and let stand at 37° C. for 1 hour. Then it was replaced with fresh Dopa reagent and left at 37° C. for 12 hours, rinsed with running water, and fixed with Bouin's solution continuously for 24 h. After the specimens were taken out, it was rinsed with running water for 4 hours, dehydrated, cleared in xylene, embedded in paraffin, deparaffinized to water, and stained with hematoxylin-eosin for contrast. Dehydrated and routinely mounted. After Dopa-oxidase staining, brownish-black staining was MC positive.
The excised mouse skin tissue was fixed in 10% formalin, dehydrated, cleared with xylene, embedded in paraffin, sectioned, deparaffinized to water, washed with distilled water several times, then stained with Lillie reagent, soaked with ferric chloride and potassium ferricyanide mixed solution for 15-20 minutes, then differentiated with 1% acetic acid aqueous solution for several minutes, washed with distilled water several times, then quickly dehydrated with 95% ethanol and absolute ethanol, cleared in xylene, and sealed with neutral gum. If melanin was dark green after Lillie reagent staining, it was positive.

rabbit ear acne model = assay: Rabbit ear acne model induced by 2% coal tar; type: in vivo, New Zealand rabbits; conditions: n = 10; for Skin thickness: rabbit ear epidermis; for Hair follicle area / Sebaceous gland diameter: rabbit ear; for Histological grading of acne: number of animals graded − / Histological grading of acne: number of animals graded 1+ / Histological grading of acne: number of animals graded 2+ / Histological grading of acne: number of animals graded 3+: right ear; for Histological grading of acne: number of animals graded −: grade 0: only loose keratinized cells in the infundibulum, without acne; for Histological grading of acne: number of animals graded 1+: grade 1: small amount of dense keratinized material, infundibulum not expanded; for Histological grading of acne: number of animals graded 2+: grade 2: moderately dense keratinized material extending to sebaceous glands, infundibulum expands; for Histological grading of acne: number of animals graded 3+: grade 3: extensive keratinized material, severe expansion of hair follicles
Excerpt: The inner side of the right ear of the rabbits was taken as the observation area, the left ear of all rabbits was used as the self-negative control, and 95% alcohol was applied. The inner side of the right ear of the model group and the treatment group were smeared with 2% coal tar (Alfa Aesar China Company, 2% coal tar solution made with 95% alcohol), and evenly applied to the opening of the ear canal on the inner side of the rabbit ear with a sterile cotton swab in a range of about 2 cm×2 cm, once a day, 0.5 mL each time. Then the previous application was wiped with warm water. […] 18 hours after the last coating, the samples were sacrificed, fixed in 10% formaldehyde, embedded in paraffin, and stained with HE for histopathological analysis.
Histological grading standard of the acne model: […], according to histology. Grade 0 means that there are only loose keratinized cells in the infundibulum, without acne forming the “1”; grade 1: the skin on the surface of the rabbit ear is red, or a small amount of dense keratinized material is seen in the infundibulum of the hair follicle, and the infundibulum is not expanded “+”; grade 2: moderately dense keratinized material is seen in the infundibulum of the hair follicle, and it extends to the sebaceous glands, with the proliferation of sebaceous gland ducts, the infundibulum expands by “2+”; grade 3: extensive keratinized material in the hair follicle. Tight keratin embolism in hair follicles causes severe expansion of hair follicles, obvious hyperplasia of sebaceous duct epithelium, skin bulges and scars, and some sebaceous glands degenerate into “3+”.
Histopathological changes were observed under a microscope, and the thickness of 5 different epidermises on a slice was measured with the Biomias99 image analysis system, and the average value was calculated; the area of two hair follicles with the same position and the most complete structure and the diameter of four sebaceous glands were detected, and the average value of each was calculated, and then the data of the left and right external auditory canals of each group were subtracted to obtain the difference in the thickness of the epidermis, the difference in hair follicle area and the diameter of the sebaceous gland in the left and right ears of each rabbit.

[2] = tested on: hair follicles / hair growth in depilated C57BL/6 mice; assay: Hair growth in C57BL/6 mice after rosin/paraffin depilation; type: in vivo; conditions: for Time from hair growth to the same length as the hair in the non-experimental area / Time to grow new hair / Time to match the length of hair in the non-experimental area: back hair removal area of mice; for Black skin duration / Skin black-turning time / Skin grayish-black-turning time: hair removal area on the back of mice; for Skin black-turning time / Skin grayish-black-turning time: after hair removal
Method: SPF grade C57BL/6 mice were selected and numbered according to their weight. They were randomly divided into compound group 1 (skin applied with 2% R-IMPP solution), compound group 2 (skin applied with 2% PF 06446846 solution), and compound group 3 (skin applied with 2% SBC-115076 solution), compound group 4 (skin applied with 2% SBC-110736 solution), monoclonal antibody group 1 (PCSK9subcutaneous injection monoclonal antibody ab81041, 5 mg/kg·d), monoclonal antibody group 2 (Subcutaneous injection of Evolocumab, 5 mg/kg·d), monoclonal antibody group 3 (subcutaneous injection of Alirocumab, 5 mg/kg·d), PCSK9 RNA interference group-1 (skin applied with 2% PCSK9 small interfering RNA-1 solution), PCSK9 RNA interference Group-2 (skin applied with 2% PCSK9 small interfering RNA-2 solution), PCSK9 RNA interference group-3 (skin applied with 2% PCSK9 small interfering RNA-3 solution), polypeptide group (subcutaneous injection of Abcam company ab32727, 3 mg/kg·d), positive control group (skin applied with 2% minoxidil solution), negative control group (skin applied with 60% ethanol), and model control group (skin applied with 60% ethanol), 10 mice in each group, half male and half female. After the mice were anesthetized with ether, they were coated on the back with a mixture of rosin and paraffin (1:1) after hot melting, and then peeled off after it solidified and hardened. The back of the mouse was cleaned to be hairless and without injuries. The depilation area was about 3 cm×4 cm. From the 2nd day after depilation, the corresponding drugs were applied to the hair removal area, twice a day, 0.5 mL per animal each time, and subcutaneously injected once a week.
From the second day after application, observe the daily color change of the skin on the back of the mice to determine the growth state of the hair follicles and visually observe the hair growth in the depilation area, and score the new hair growth in the depilation area once a day. Five mice in each group were reserved for 40 days of visual observation, and the growth of back hair was recorded.
On the 17th day, five mice in each group were sacrificed by cervical dislocation. The samples were taken from the same part of the back parallel to the spine, fixed with 10% formaldehyde, dehydrated, embedded in paraffin, sectioned, stained with HE, and sealed with neutral gum. Then the histology of hair follicles was observed under light microscope, and morphological staging of hair follicles was performed. According to the international hair cycle scoring method, the hair follicles were scored as follows: 100 points for growth stage VI, 200 points for early regression, 300 points for middle regression, and 400 points for late regression. 50 hair follicles were randomly selected from each mouse, the cycle of the hair follicles in each group was determined, and the average hair cycle score and the percentage of hair follicles in the growth phase VI, early regression, middle regression, and late regression were calculated.

Row | Compound | Epidermal melanocyte count [1] | Basal cells containing melanin granules count [1] | Skin thickness (rabbit ear acne model) [mm] | Hair follicle area (rabbit ear acne model) | Sebaceous gland diameter (rabbit ear acne model) [mm] | Histological grading of acne: number of animals graded − (rabbit ear acne model) | Histological grading of acne: number of animals graded 1+ (rabbit ear acne model) | Histological grading of acne: number of animals graded 2+ (rabbit ear acne model) | Histological grading of acne: number of animals graded 3+ (rabbit ear acne model) | Time from hair growth to the same length as the hair in the non-experimental area [2] | Time to grow new hair [2] | Time to match the length of hair in the non-experimental area [2] | Black skin duration [2] | Skin black-turning time [2] | Skin grayish-black-turning time [2]
1 | Cc1cc(C(=O)C2=C(O)C(=O)N(CCCN3CCOCC3)C2c2ccncc2)ccc1OCc1ccccc1 (stereo not drawn) [Compound group 3, SBC-115076] | 36.1 ± 2.8 | 36.9 ± 3.6 | 0.2245 ± 0.0185 | 0.2836 ± 0.0851* mm^2 | 0.0542 ± 0.0346 | 5 | 3 | 2 | 0 | 11.52* days | 6.95* days | 19.35* days | 11.65* days | 5.63* days | 18.12* days
2 | O=C(c1ccc(-n2nnc3cccnc32)cc1)N(c1ncccc1Cl)[C@@H]1CCCNC1 [Compound group 2, PF 06446846] | 39.3 ± 3.2 | 38.8 ± 3.9 | 0.1968 ± 0.0121 | 0.2353 ± 0.0812* mm^2 | 0.0467 ± 0.0313 | 7 | 2 | 1 | 0 | 10.46* days | 6.33* days | 17.69* days | 10.86* days | 5.45* days | 17.32* days
3 | ALN-PCS [RNA interference group 3] | 33.8 ± 2.7 | 35.3 ± 3.1 | 0.1987 ± 0.0185 | 0.1921 ± 0.0933* mm^2 | 0.0615 ± 0.0476 | 5 | 4 | 1 | 0 | 14.26* days | 6.96* days | 21.38* days | 12.16* days | 6.08* days | 18.52* days
4 | Inclisran [RNA interference group 2] | 32.6 ± 2.8 | 36.1 ± 3.2 | 0.1856 ± 0.0179 | 0.1836 ± 0.0856* mm^2 | 0.0561 ± 0.0423 | 6 | 3 | 1 | 0 | 14.12* days | 6.92* days | 20.16* days | 11.87* days | 5.66* days | 18.23* days
5 | Alirocumab [Monoclonal antibody group 3] | 43.5 ± 3.6 | 39.6 ± 3.7 | 0.1547 ± 0.0149 | 0.1526 ± 0.0723* mm^2 | 0.0435 ± 0.0285 | 9 | 1 | 0 | 0 | 10.13* days | 6.06* days | 16.75* days | 13.43* days | 5.35* days | 16.65* days
6 | CC(=O)Nc1ccc(C(=O)N2CCN(c3ccc(C)cc3)CC2c2ccccc2)cc1 (stereo not drawn) [Compound group 4, SBC-110736] | 34.6 ± 2.6 | 36.8 ± 3.7 | 0.2276 ± 0.0193 | 0.2853 ± 0.0879* mm^2 | 0.0561 ± 0.0362 | 5 | 2 | 3 | 0 | 11.87* days | 6.98* days | 18.46* days | 12.32* days | 5.78* days | 18.46* days
7 | COc1ccc(CCC(=O)N(c2nccc3ccccc23)[C@@H]2CCCNC2)cc1 [Compound group 1, R-IMPP] | 33.6 ± 2.9 | 36.5 ± 3.8 | 0.2433 ± 0.0196 | 0.2726 ± 0.0842* mm^2 | 0.0512 ± 0.0327 | 6 | 3 | 1 | 0 | 11.14* days | 6.92* days | 18.06* days | 14.29* days | 5.96* days | 20.25* days
